Experimental data published in patent US6531512B1, “Method of treating cancer in patients having a deficiency in p53 tumor suppressor gene” (Health Research Inc., priority 1998, dated 2003).
Marks after values point to notes of the source that are not given here.

Columns and labels:
[1] = tested on: MALME-3M human melanoma cells; assay: Cell growth of MALME-3M cells (Coulter Counter); type: cell-based; conditions: 10 μM
Procedure: MALME-3M human melanoma cells containing wt-p53 (American Tissue Type Culture Collection, Bethesda, Md.) and human SK-MEL-28 cells containing mt-p53 (American Tissue Type Culture Collection, Bethesda, Md.) were cultured as a monolayer in RPMI 1640 medium containing 10% Nu-Serum (Collaborative Research Products, Bedford, Mass.), 1 mM aminoguanidine, penicillin (50 units/ml) and streptomycin (50 μg/ml) as described by Kramer et al, J. Biol. Chem., 270:2124-32 (1995) and Kramer et al., Cancer Res., 57:5521-5527 (1997).
MALME-3M cells were cultured as described in Example 1. The cells were seeded by adding 1×10^5 cells to a T-25 vented cell culture flask. After 24 hours, the asynchronous cell cultures were treated with 10 μM N^1, N^11-diethylnorspermine (DENSPM) prepared by dissolving DENSPM in distilled water and sterilizing the solution by filtration through a 0.22 micron Millipore membrane. The cells were treated by continuous exposure to DENSPM for 6 days (i.e., the polyamine was added to the cell culture at T=0 and the culture was incubated for the desired amount of time). The number of viable MALME-3M cells were monitored electronically using a Model ZM Coulter Counter (Coulter Electronics, Hialeah, Fla.). Untreated MALME-3M cell cultures were used as controls.
(§1) MALME-3M human melanoma cells were cultured as described in Example 1 and treated continuously with 10 μM DENSPM or 10 μM spermine (SPM) for 48 hours. SK-MEL-28 cells were also cultured as described in Example 1 and treated with 10 μM DENSPM for 24 hours. Untreated cells were used as a control.
(§2) The effect of DENSPM and spermine on cell growth was monitored using a Coulter Counter (see Example 2). The effect on cell cycle was monitored by flow cytometry as described in Example 3.

[2] = tested on: SK-MEL-28 human melanoma cells; assay: Cell cycle distribution of SK-MEL-28 cells by flow cytometry; type: cell-based; conditions: SK-MEL-28 (mt-p53), attached cells, 10 μM, 24 hours treatment (footnote)
Procedure: MALME-3M cells were cultured as described in Example 1 and treated with 10 μM DENSPM as described in Example 2. Cell cycle arrest was monitored using a FACScan flow cytometry unit (Becton Dickinson, San Jose, Calif.) according to the method of Krishan (1975) J. Cell Biol. 66:[…]. Untreated MALME-3M cell cultures were used as controls.
as §1, §2

[3] = tested on: S-adenosylmethionine decarboxylase (SAMDC); assay: Polyamine enzyme activity in treated melanoma cells: SAMDC; type: cell-based, human; conditions: 10 μM
Procedure: (§3) MALME-3M human melanoma cells were cultured as described in Example 1 and treated with 10 μM DENSPM or 10 μM spermine (SPM) as described in Example 4. SK-MEL-28 cells were also cultured as described in Example 1 and treated with 10 μM DENSPM as describe in Example 4. Untreated cells were used as a control.
(§4) After treatment with DENSPM or spermine, biochemical parameters including polyamine enzymes activity, polyamine pools and analog accumulation were monitored as described by Kramer et al, J. Biol. Chem., 270:2124-32 (1995) and Kramer et al., Cancer Res., 57:5521-5527 (1997). Polyamine enzyme activity was monitored for ornithine […] (ODC); S-adenosylmethionine decarboxylase (SAMDC); and spermidine/spermine N^1-acetyltransferase (SSAT). Polyamine pools was monitored for putrescine (Put); spermidine (Spd); and spermine (Spm).

[4] = tested on: spermidine/spermine N^1-acetyltransferase (SSAT); assay: Polyamine enzyme activity in treated melanoma cells: SSAT induction; type: cell-based, human; conditions: SK-MEL-28 cells, 24 hours
Procedure: as §3, §4
Enzyme activity and polyamine pools were measured as described in Example 5.

[5] = tested on: MALME-3M human melanoma cells; assay: Polyamine pools in MALME-3M cells; type: cell-based; conditions: MALME-3M (wt-p53), 10 μM, Table 2 (24 hours treatment)
Procedure: as §3, §4

[6] = tested on: cell cycle regulatory proteins, including p53, p21, p27, ppRb, pRb, cyclin D1 and PCNA; assay: Western blot of cell cycle regulatory proteins in MALME-3M cells; type: cell-based, human; conditions: 10 μM
Procedure: (§5) MALME-3M and SK-MEL-28 cells cultured as described in Example 4 were treated with 10 μM DENSPM for 0 to 48 hours. Western blot analysis of cell cycle regulatory proteins, including p53, p21, p27, ppRb, pRb, cyclin D1 and PCNA was performed following the procedure described by Fogel-Petrovic et al. in Molec. Pharm, 52:69-74 (1997); and Biochemistry, 35:14436-14444 (1996). Antibodies used for detecting the proteins were obtained commercially as follows: p53 from Santa Cruz Biotechnology, Inc. (Santa Cruz, Calif.); PCNA and Cyclin D1 from Oncogene Research Products (Cambridge, Mass.); Rb and p21 from PharMigen (San Diego, Calif.); p27 from Transduction labs (Lexington, Ky.) and β-actin (used to correct for variations in loading) from Sigma Chemical Co. (St. Louis, Mo.). Western blot analysis of each of these proteins was performed at least three times.

[7] = tested on: cell cycle regulatory proteins (p53, p21, p16, p27); assay: Western blot of cell cycle regulatory proteins in SK-MEL-28 cells; type: cell-based, human; conditions: SK-MEL-28, 10 μM
Procedure: as §5
The effects of 10 μM DENSPM on MALME-3M and SK-MEL-28 cell growth and cell cycle regulatory proteins were determined as described in Examples 2 and 3, respectively. Panel A is a comparison of the effects of DENSPM on cell growth. Panel B is a comparison of cell cycle regulatory proteins. […] In contrast, p16 was not detectable in MALME-3M cells. Data is representative of at least two experiments.

[8] = MALME-3M (wt-p53), Table 2 (24 hours treatment)

CCNCCCNCCCNCCCNCC [DENSPM, N^1,N^11-diethylnorspermine]
% Control Growth ([1]; MALME-3M (wt-p53), 48 hours): 54% | % Growth Control [1, 8]: 83% | time course of viable cell number ([1]; MALME-3M, asynchronous, continuous exposure 6 days): steady growth for the first 24 hours, then a plateau and then began to decline in number from 48 hours onwards | % Total Cells, G1 [2]: 74** % | % Total Cells, G2/M [2]: 9** % | % Total Cells, S [2]: 17** % | SAMDC activity [3, 8]: 40 pmol/hr/mg protein | SAMDC activity ([3]; SK-MEL-28 (mt-p53), Table 2, 24 hours): 25 pmol/hr/mg protein | SSAT activity [4]: 31,920 pmol/min/mg | Enzyme Activities, SSAT ([4]; Table 4): 31920 pmol/min/mg protein | Polyamine Pools, Put [5]: 205 pmol/10^6 cells | Polyamine Pools, Spd [5]: 60 pmol/10^6 cells | Polyamine Pools, Spm [5]: 285 pmol/10^6 cells | appearance of the hypophosphorylated Rb (pRb) protein band [6]: about 16 hours | start of increase in p21 [6]: about 12 hours | start of increase in wild type p53 [6]: about 12 hours | time of p21 maximum [6]: 30 h | time of p53 maximum [6]: 30 h | protein levels of PCNA ([6]; 0 to 48 hours): unaffected | p21 protein increase relative to zero treatment time (densitometry, normalized to β-actin) ([6]; 30 hour peak): 5 fold | p53 protein increase relative to zero treatment time (densitometry, normalized to β-actin) ([6]; 30 hour peak): 10 fold | levels of p130, cyclin D1 and cyclin E ([6]; 48 hour time course (data not shown)): relatively constant | Rb phosphorylation state by 48 hours ([6]; 48 hours): pRb was the only species | p27 maximum induction ([6]; at 24 to 30 hours): about 1.5 fold | cdk inhibitors p16 and p27 [7]: not increased | p21 protein induction with treatment [7]: not induced | induction of p53 ([7]; 24 hours): no induction
